Assay results published in the Kinase Knowledgebase extract (Sharma et al. 2016).

target: MAPK14 (human) (UniProt Q16539); experiment: Inhibition of MAPK14 Kinase Activity
Sequence (Q16539 whole entry, looked up): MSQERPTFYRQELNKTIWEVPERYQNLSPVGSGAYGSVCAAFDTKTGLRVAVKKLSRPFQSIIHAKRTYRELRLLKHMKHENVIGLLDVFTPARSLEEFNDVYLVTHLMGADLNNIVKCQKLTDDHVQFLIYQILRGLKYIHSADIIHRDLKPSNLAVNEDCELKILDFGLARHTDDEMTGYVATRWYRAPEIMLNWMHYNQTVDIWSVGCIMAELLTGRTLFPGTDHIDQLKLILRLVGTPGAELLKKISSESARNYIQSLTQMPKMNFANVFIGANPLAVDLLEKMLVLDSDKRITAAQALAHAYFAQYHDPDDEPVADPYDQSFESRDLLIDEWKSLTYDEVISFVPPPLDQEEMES

IC50, < 1000 nM:
Cc1cc(Nc2c(C(=O)C3CCN(C)CC3)sc3c2ccc(=O)n3-c2ccccc2)ccc1F
Cc1cc(Nc2c(C(=O)NC3CNC3)sc3c2ccc(=O)n3-c2ccccc2)ccc1F
O=C(NC1CCNC1)c1sc2c(ccc(=O)n2-c2ccccc2)c1Nc1ccc(F)cc1F (stereo unspecified)
CN1CC[C@H](NC(=O)c2sc3c(ccc(=O)n3-c3ccccc3)c2Nc2ccc(F)cc2F)C1
O=C(N[C@@H]1CCC[C@@H]1O)c1sc2c(ccc(=O)n2-c2ccccc2)c1Nc1ccc(F)cc1F
Cc1cc(Nc2c(C(=O)C3CCNCC3)sc3c2ccc(=O)n3-c2ccccc2)ccc1F
CN1CC[C@@H](NC(=O)c2sc3c(ccc(=O)n3-c3ccccc3)c2Nc2ccc(F)cc2F)C1
O=C(c1sc2c(ccc(=O)n2-c2ccccc2)c1Nc1ccc(F)cc1F)C1CCNCC1
O=C(c1sc2c(ccc(=O)n2-c2ccccc2)c1Nc1ccccc1)C1CCNCC1
O=C(N[C@@H]1CCNC1)c1sc2c(ccc(=O)n2-c2ccccc2)c1Nc1ccc(F)cc1F
Cc1cccc(Nc2c(C(=O)C3CCNCC3)sc3c2ccc(=O)n3-c2ccccc2)n1
CN1CCC(NC(=O)c2sc3c(ccc(=O)n3-c3ccccc3)c2Nc2ccc(F)cc2F)CC1
O=C(N[C@H]1CCNC1)c1sc2c(ccc(=O)n2-c2ccccc2)c1Nc1ccc(F)cc1F
O=C(N[C@H]1CCC[C@@H]1O)c1sc2c(ccc(=O)n2-c2ccccc2)c1Nc1ccc(F)cc1F
O=C(N[C@@H]1CCC[C@H]1O)c1sc2c(ccc(=O)n2-c2ccccc2)c1Nc1ccc(F)cc1F
O=C(NC1CCNCC1)c1sc2c(ccc(=O)n2-c2ccccc2)c1Nc1ccc(F)cc1F
